Source: patent US10934310B2, “Inhibitors of Bruton's tyrosine kinase and method of their use” (JANSSEN PHARMACEUTICA NV, priority 2015, dated 2021)

Biological target: unphosphorylated-BTK kinase domain (UP-BTK), GST-tagged human BTK (389-659aa) (Homo sapiens (Human), UniProt Q06187)
Assay: BTK Kinase Lanthascreen Binding Assay
Conditions: Lanthascreen binding, 60 minutes incubation; pIC50 = negative log of the IC50 in molar
Procedure: BTK Kinase Lanthascreen Binding Assay:
A BTK kinase lanthascreen binding assay monitors compound binding to unphosphorylated-BTK kinase domain (UP-BTK), by competing with a fluorescent labeled tracer. […] Data were analyzed using Xlfit™ version 5.3 from ID Business Solutions (Guildford), Microsoft Excel add-in. pIC50 refers to the negative log of the IC50 in molar.

Sequence of unphosphorylated-BTK kinase domain (UP-BTK), GST-tagged human BTK (389-659aa) (Q06187 389-659): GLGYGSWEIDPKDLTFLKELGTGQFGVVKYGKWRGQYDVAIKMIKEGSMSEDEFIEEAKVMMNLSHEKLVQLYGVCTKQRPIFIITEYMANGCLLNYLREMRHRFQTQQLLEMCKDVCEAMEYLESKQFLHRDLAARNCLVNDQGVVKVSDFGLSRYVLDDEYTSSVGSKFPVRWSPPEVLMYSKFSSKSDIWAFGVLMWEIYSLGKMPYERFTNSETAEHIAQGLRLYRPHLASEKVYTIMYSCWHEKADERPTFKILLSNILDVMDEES

Row | Structure (SMILES) | BTK_I_binding pIC50
1 | C=CC(=O)N[C@H]1CCCC[C@H]1NC(=O)c1sc2nccc3c2c1NC(=O)N3c1ccc(Oc2ccccc2)cn1 [Example 291, N-((1R,2S)-2-Acrylamidocyclohexyl)-4-oxo-5-(5-phenoxypyridin-2-yl)-4,5-dihydro-3H-1-thia-3,5,8-triazaacenaphthylene-2-carboxamide] | 8.60
2 | C=CC(=O)N[C@H]1CCCC[C@H]1NC(=O)c1sc2nccc3c2c1NC(=O)N3c1cnc(Oc2ccccc2)cn1 [Example 295, N-((1R,2S)-2-Acrylamidocyclohexyl)-4-oxo-5-(5-phenoxypyrazin-2-yl)-4,5-dihydro-3H-1-thia-3,5,8-triazaacenaphthylene-2-carboxamide] | 8.39
3 | C=CC(=O)N[C@H]1CCC[C@H]1NC(=O)c1sc2nccc3c2c1NC(=O)N3c1ncc(Oc2ccccc2)cn1 [Example 296, N-((1R,2S)-2-acrylamidocyclopentyl)-4-oxo-5-(5-phenoxypyrimidin-2-yl)-4,5-dihydro-3H-1-thia-3,5,8-triazaacenaphthylene-2-carboxamide] | 8.39
4 | C=CC(=O)N[C@H]1CCCC[C@H]1NC(=O)c1sc2nccc3c2c1NC(=O)N3c1ncc(Oc2ccccc2)cn1 [Example 297, N-((1R,2S)-2-Acrylamidocyclohexyl)-4-oxo-5-(5-phenoxypyrimidin-2-yl)-4,5-dihydro-3H-1-thia-3,5,8-triazaacenaphthylene-2-carboxamide] | 8.53
5 | C=CC(=O)N[C@H]1CCC[C@H]1NC(=O)c1sc2nccc3c2c1NC(=O)N3c1cnc(CC(C)C)cc1C [Example 298, N-((1R,2S)-2-Acrylamidocyclopentyl)-5-(S)-(6-isobutyl-4-methylpyridin-3-yl)-4-oxo-4,5-dihydro-3H-1-thia-3,5,8-triazaacenaphthylene-2-carboxamide] | 8.09
6 | C=CC(=O)N[C@H]1CCCC[C@H]1NC(=O)c1sc2nccc3c2c1NC(=O)N3c1cnc(Oc2ccccc2)nc1 [Example 302, N-((1R,2S)-2-Acrylamidocyclohexyl)-4-oxo-5-(2-phenoxypyrimidin-5-yl)-4,5-dihydro-3H-1-thia-3,5,8-triazaacenaphthylene-2-carboxamide] | 8.23
7 | C=CC(=O)N[C@H]1CCC[C@H]1NC(=O)c1sc2nccc3c2c1NC(=O)N3c1ccc(Oc2cccnn2)cc1C [Example 305, N-((1R,2S)-2-Acrylamidocyclopentyl)-5-(2-methyl-4-(pyridazin-3-yloxy)phenyl)-4-oxo-4,5-dihydro-3H-1-thia-3,5,8-triazaacenaphthylene-2-carboxamide] | 7.84

Same assay, conditions: compound, 50 nM Tracer 236, 2 nM anti-GST antibody, 60 minutes; pIC50 = negative log of the IC50 in molar

Row | Structure (SMILES) | BTK_I_binding pIC50
8 | N[C@H]1CCCC[C@H]1NC(=O)c1sc2nccc3c2c1NC(=O)N3c1ccnc(-c2ccccc2)c1 [Example 260, N-((1R,2S)-2-Aminocyclohexyl)-4-oxo-5-(2-phenylpyridin-4-yl)-4,5-dihydro-3H-1-thia-3,5,8-triazaacenaphthylene-2-carboxamide] | 6.45
9 | N[C@H]1CCC[C@H]1NC(=O)c1sc2nccc3c2c1NC(=O)N3c1ccnc(-c2ccccc2)c1 [Example 263, N-((1R,2S)-2-Aminocyclopentyl)-4-oxo-5-(2-phenylpyridin-4-yl)-4,5-dihydro-3H-1-thia-3,5,8-triazaacenaphthylene-2-carboxamide] | 6.38
10 | N[C@H]1CCC[C@H]1NC(=O)c1sc2nccc3c2c1NC(=O)N3c1ccc(Oc2ccccc2)nc1 [Example 265, N-((1R,2S)-2-Aminocyclopentyl)-4-oxo-5-(6-phenoxypyridin-3-yl)-4,5-dihydro-3H-1-thia-3,5,8-triazaacenaphthylene-2-carboxamide] | 6.24
11 | N[C@H]1CCC[C@H]1NC(=O)c1sc2nccc3c2c1NC(=O)N3c1cc(-c2ccccc2)ccn1 [Example 267, N-((1R,2S)-2-Aminocyclopentyl)-4-oxo-5-(4-phenylpyridin-2-yl)-4,5-dihydro-3H-1-thia-3,5,8-triazaacenaphthylene-2-carboxamide] | 6.21
12 | N[C@@H]1CCC[C@H]1NC(=O)c1sc2nccc3c2c1NC(=O)N3c1ccc(Oc2ccccc2)nc1 [Example 269, N-((1R,2R)-2-Aminocyclopentyl)-4-oxo-5-(6-phenoxypyridin-3-yl)-4,5-dihydro-3H-1-thia-3,5,8-triazaacenaphthylene-2-carboxamide] | 6.00

Same assay, conditions: read-out: BTK_I_binding pIC50 (converted)

Row | Structure (SMILES) | IC50 [nM]
13 | CC(=O)N[C@@H]1CCC[C@@H]1NC(=O)c1sc2nccc3c2c1NC(=O)N3c1ccnc(-c2ccccc2)c1 [Example 258, N-((1S,2R)-2-Acetamidocyclopentyl)-4-oxo-5-(2-phenylpyridin-4-yl)-4,5-dihydro-3H-1-thia-3,5,8-triazaacenaphthylene-2-carboxamide] | > 1000
14 | O=C(N[C@@H]1CCC[C@H]1O)c1sc2nccc3c2c1NC(=O)N3c1ccnc(-c2ccccc2)c1 [Example 268, N-((1R,2R)-2-Hydroxycyclopentyl)-4-oxo-5-(2-phenylpyridin-4-yl)-4,5-dihydro-3H-1-thia-3,5,8-triazaacenaphthylene-2-carboxamide] | 631
15 | CC(C)c1cc(N2C(=O)Nc3c(C(=O)N[C@@H]4CCC[C@@H]4N)sc4nccc2c34)ccn1 [Example 270, N-((1R,2S)-2-Aminocyclopentyl)-5-(2-isopropylpyridin-4-yl)-4-oxo-4,5-dihydro-3H-1-thia-3,5,8-triazaacenaphthylene-2-carboxamide] | > 1000
16 | CC(C)Oc1ccc(N2C(=O)Nc3c(C(=O)N[C@@H]4CCC[C@@H]4N)sc4nccc2c34)cc1 [Example 271, N-((1R,2S)-2-Aminocyclopentyl)-5-(4-isopropoxyphenyl)-4-oxo-4,5-dihydro-3H-1-thia-3,5,8-triazaacenaphthylene-2-carboxamide] | > 1000
17 | N[C@@H]1CCCC[C@H]1NC(=O)c1sc2nccc3c2c1NC(=O)N3c1ccc(Oc2ccccc2)nc1 [Example 277, N-((1R,2R)-2-Aminocyclohexyl)-4-oxo-5-(6-phenoxypyridin-3-yl)-4,5-dihydro-3H-1-thia-3,5,8-triazaacenaphthylene-2-carboxamide] | > 1000
18 | N[C@H]1CCC[C@H]1NC(=O)c1sc2nccc3c2c1NC(=O)N3c1cnnc(-c2ccccc2)c1 [Example 278, N-((1R,2S)-2-Aminocyclopentyl)-4-oxo-5-(6-phenylpyridazin-4-yl)-4,5-dihydro-3H-1-thia-3,5,8-triazaacenaphthylene-2-carboxamide] | > 1000
19 | C=CC(=O)N[C@H]1CCC[C@H](NC(=O)c2sc3nccc4c3c2NC(=O)N4c2ccnc(-c3ccccc3)c2)C1 [Example 279, N-((1S,3S)-3-Acrylamidocyclohexyl)-4-oxo-5-(2-phenylpyridin-4-yl)-4,5-dihydro-3H-1-thia-3,5,8-triazaacenaphthylene-2-carboxamide] | > 1000
20 | CC(=O)N[C@H]1CCC[C@H]1NC(=O)c1sc2nccc3c2c1NC(=O)N3c1ccnc(-c2ccccc2)c1 [Example 280, N-((1R,2S)-2-Acetamidocyclopentyl)-4-oxo-5-(2-phenylpyridin-4-yl)-4,5-dihydro-3H-1-thia-3,5,8-triazaacenaphthylene-2-carboxamide] | > 1000
21 | N[C@H]1CCC[C@H]1NC(=O)c1sc2nccc3c2c1NC(=O)N3c1cc(-c2ccccc2)ncn1 [Example 281, N-((1R,2S)-2-Aminocyclopentyl)-4-oxo-5-(6-phenylpyrimidin-4-yl)-4,5-dihydro-3H-1-thia-3,5,8-triazaacenaphthylene-2-carboxamide] | > 1000

Results, then the molecule that gave them:

Row | IC50 [nM] | Structure (SMILES)
22 | > 1000 | C=CC(=O)N[C@H]1CC[C@H](NC(=O)c2sc3nccc4c3c2NC(=O)N4c2ccnc(-c3ccccc3)c2)C1 [Example 282, N-((1S,3S)-3-Acrylamidocyclopentyl)-4-oxo-5-(2-phenylpyridin-4-yl)-4,5-dihydro-3H-1-thia-3,5,8-triazaacenaphthylene-2-carboxamide]
23 | > 1000 | C=CC(=O)N[C@H]1CCC[C@@H](NC(=O)c2sc3nccc4c3c2NC(=O)N4c2ccnc(-c3ccccc3)c2)C1 [Example 283, N-((1R,3S)-3-Acrylamidocyclohexyl)-4-oxo-5-(2-phenylpyridin-4-yl)-4,5-dihydro-3H-1-thia-3,5,8-triazaacenaphthylene-2-carboxamide]
24 | > 1000 | N[C@H]1CCC[C@H]1NC(=O)c1sc2nccc3c2c1NC(=O)N3c1cncc(-c2ccccc2)c1 [Example 284, N-((1R,2S)-2-Aminocyclopentyl)-4-oxo-5-(5-phenylpyridin-3-yl)-4,5-dihydro-3H-1-thia-3,5,8-triazaacenaphthylene-2-carboxamide]
25 | > 1000 | N[C@H]1CCC[C@H]1NC(=O)c1sc2nccc3c2c1NC(=O)N3c1cccc(-c2ccccn2)c1 [Example 285, N-((1R,2S)-2-Aminocyclopentyl)-4-oxo-5-(3-(pyridin-2-yl)phenyl)-4,5-dihydro-3H-1-thia-3,5,8-triazaacenaphthylene-2-carboxamide]
26 | > 1000 | CNCC(=O)N[C@@H]1CCC[C@@H]1NC(=O)c1sc2nccc3c2c1NC(=O)N3c1ccnc(-c2ccccc2)c1 [Example 286, N-((1S,2R)-2-(2-(Methylamino)acetamido)cyclopentyl)-4-oxo-5-(2-phenylpyridin-4-yl)-4,5-dihydro-3H-1-thia-3,5,8-triazaacenaphthylene-2-carboxamide]
27 | > 1000 | Cc1cc(OC2CCOCC2)ccc1N1C(=O)Nc2c(C(=O)N[C@@H]3CCC[C@@H]3N)sc3nccc1c23 [Example 287, N-((1R,2S)-2-Aminocyclopentyl)-5-(2-methyl-4-((tetrahydro-2H-pyran-4-yl)oxy)phenyl)-4-oxo-4,5-dihydro-3H-1-thia-3,5,8-triazaacenaphthylene-2-carboxamide]
28 | > 1000 | N[C@H]1CCC[C@H]1NC(=O)c1sc2nccc3c2c1NC(=O)N3c1ccc(OC2CCOCC2)cc1 [Example 288, N-((1R,2S)-2-Aminocyclopentyl)-4-oxo-5-(4-((tetrahydro-2H-pyran-4-yl)oxy)phenyl)-4,5-dihydro-3H-1-thia-3,5,8-triazaacenaphthylene-2-carboxamide]
